Measured values published in patent US9750733B2, “Compounds for preventing and/or treating lysosomal storage disorders and/or degenerative disorders of the central nervous system” (Amicus Therapeutics, Inc., priority 2012, dated 2017).
Where a name gives a salt, the structure may show the parent alone.

Assays:
[1] = Dynamic vapor sorption (DVS) hygroscopicity analysis; type: physicochemical; settings: for Hygroscopicity (% water uptake up to 45% relative humidity): DVS, 25° C., 60 minutes hold per 10% step in relative humidity, weight increase as percentage of material weight
Method: Differences in hygroscopicity (moisture uptake) of the various forms of a solid material provide a measure of their relative stability at increasing relative humidity. Dynamic vapor sorption (DVS) analysis was performed for (3R,4R,5S)-5-(difluoromethyl)piperidine-3,4-diol, (3R,4R,5S)-5-(difluoromethyl)piperidine-3,4-diol fumarate Form A, (3R,4R,5S)-5-(difluoromethyl)piperidine-3,4-diol fumarate Form 1B and (3R,4R,5S)-5-(difluoromethyl)piperidine-3,4-diol tosylate. Moisture sorption isotherms for samples of each salt and the free base were obtained using a DVS-1 system from Surface Measurement Systems (London, UK). The relative humidity was cycled from 45% to 95% (sorption), back to 0% (desorption) and back to 45% (sorption) at a constant temperature of 25° C. with a hold time of 60 minutes per each 10% step in relative humidity. The increase in weight due to moisture uptake was measured as a percentage of the weight of the material.

β-glucocerebrosidase = target: T1, β-glucocerebrosidase (Homo sapiens, UniProt P04062); settings: as described in US 2011/0091442 and 2011/0092541; cited from earlier work
T1 sequence (P04062 40-536): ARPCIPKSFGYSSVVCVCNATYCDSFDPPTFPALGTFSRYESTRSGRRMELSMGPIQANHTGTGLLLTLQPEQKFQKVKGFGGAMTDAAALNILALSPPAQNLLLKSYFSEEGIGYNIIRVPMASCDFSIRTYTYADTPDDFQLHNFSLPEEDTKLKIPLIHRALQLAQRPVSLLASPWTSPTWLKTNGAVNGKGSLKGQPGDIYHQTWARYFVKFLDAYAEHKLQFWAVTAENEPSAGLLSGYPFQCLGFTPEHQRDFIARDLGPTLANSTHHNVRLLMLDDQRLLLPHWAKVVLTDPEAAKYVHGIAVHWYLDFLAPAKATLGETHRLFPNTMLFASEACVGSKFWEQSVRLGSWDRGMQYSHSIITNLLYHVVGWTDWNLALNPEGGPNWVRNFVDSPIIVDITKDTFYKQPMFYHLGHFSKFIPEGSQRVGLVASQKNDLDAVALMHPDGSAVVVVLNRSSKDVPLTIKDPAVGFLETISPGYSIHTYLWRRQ

[2] = Physical stability under stress and ambient conditions; type: physicochemical
Source text: (§1) The hydrochloride and fumarate Forms B, B2 and B3 salts of (3R,4R,5S)-5-(difluoromethyl)piperidine-3,4-diol were also found to be hygroscopic.

[3] = Separate dynamic vapor sorption test (hydrochloride salt); type: physicochemical
Source text: as §1

O[C@H]1[C@H](O)CNC[C@@H]1C(F)F [Free Base, (3R,4R,5S)-5-(difluoromethyl)piperidine-3,4-diol]
Hygroscopicity (% water uptake up to 45% relative humidity) [1]: 9.3% | Inhibition of β-glucocerebrosidase (in words) (β-glucocerebrosidase): potent and selective inhibitors

O=C(O)/C=C/C(=O)O.O[C@H]1[C@H](O)CNC[C@@H]1C(F)F [Fumarate Form 1B, (3R,4R,5S)-5-(difluoromethyl) piperidine-3,4-diol fumarate Form 1B]
Hygroscopicity (% water uptake up to 45% relative humidity) [1]: 0.497% | Hygroscopicity of the salt relative to the free base (fold lower than free base) ([1]; comparison of the Table 6 DVS values): roughly 20 fold

O[C@H]1[C@H](O)CNC[C@@H]1C(F)F [Fumarate Form A, (3R,4R,5S)-5-(difluoromethyl)piperidine-3,4-diol fumarate Form A]
Hygroscopicity (% water uptake up to 45% relative humidity) [1]: 0.09% | Physical state after one day at 40° C. and 75% relative humidity [2]: physically stable | Physical stability in slurries ([2]; slurries at 10° C. and 30° C. in a variety of organic solvents): physically stable | Physical stability on wet grinding ([2]; wet grinding for 60 minutes at 30 Hz): physically stable

Cc1ccc(S(=O)(=O)O)cc1.O[C@H]1[C@H](O)CNC[C@@H]1C(F)F [Tosylate, (3R,4R,5S)-5-(difluoromethyl)piperidine-3,4-diol tosylate]
Hygroscopicity (% water uptake up to 45% relative humidity) [1]: 0.08%

O=C(O)/C=C/C(=O)O.O[C@H]1[C@H](O)CNC[C@@H]1C(F)F [fumarate Form B3, (3R,4R,5S)-5-(difluoromethyl) piperidine-3,4-diol fumarate Form B3]
Stability at ambient conditions ([2]; at least one day at ambient conditions (room temperature)): remained stable

O=C(O)/C=C/C(=O)O.O[C@H]1[C@H](O)CNC[C@@H]1C(F)F [fumarate Form B, (3R,4R,5S)-5-(difluoromethyl) piperidine-3,4-diol fumarate Forms B, B2 and B3]
Hygroscopicity (in words) [2]: hygroscopic | Physical state after one day at 40° C. and 75% relative humidity [2]: became deliquescent

Cl.O[C@H]1[C@H](O)CNC[C@@H]1C(F)F [hydrochloride, (3R,4R,5S)-5-(difluoromethyl)piperidine-3,4-diol hydrochloride]
Inhibition of β-glucocerebrosidase (in words) (β-glucocerebrosidase): potent and selective inhibitors | Relative humidity after which the salt became deliquescent [3]: > 60 % relative humidity | Hygroscopicity (in words) [2]: hygroscopic
